In patent publication US20120035169A1, “AEROSOL FORMULATION FOR THE INHALATION OF BETA-AGONISTS” (BOEHRINGER INGELHEIM INTERNATIONAL GMBH, priority 2004, published 2012) one finds melting point data, which are given here for five molecules.

What is called melting point is the temperature, or range, at which the solid turns liquid.

Structures can show the parent of a compound that is named as a salt.

Molecule `Cc1cc(C)cc(CC(C)(C)NCC(O)c2cc(O)cc3c2OCC(=O)N3)c1` (centres unmarked) (as salt: hydrochloride) came in with a melting point of 235 to 238 °C.
As for `Cc1cc(F)ccc1CC(C)(C)NCC(O)c1cc(O)cc2c1OCC(=O)N2` (centres unmarked) (as salt: hydrochloride), the figure is 278 to 280 °C; as for `CC(C)(Cc1ccc(F)cc1F)NCC(O)c1cc(O)cc2c1OCC(=O)N2` (centres unmarked) (as salt: hydrochloride), 279 to 280 °C; as for `Cc1cc(CC(C)(C)NCC(O)c2cc(O)cc3c2OCC(=O)N3)ccc1F` (centres unmarked) (as salt: hydrochloride), 278 to 280 °C.
On to `CC(C)(Cc1ccc(OCCCC(=O)O)cc1)NCC(O)c1cc(O)cc2c1OCC(=O)N2` (centres unmarked) (as salt: salt) [Example 16, Acid addition salt of 4-(4-{2-[2-hydroxy-2-(6-hydroxy-3-oxo-3,4-dihydro-2H-benzo[1,4]oxazin-8-yl)-ethylamino]-2-methyl-propyl}-phenoxy)-butyric acid], for which the melting point fell in the range of 201 to 204 °C.
